In patent US11873298B2, “Compounds and uses thereof” (JANSSEN PHARMACEUTICA NV, priority 2017, dated 2024):

What was measured:
SCD1 = target: T1, SCD1 (Homo sapiens, UniProt O00767); assay: Growth inhibition of humanized yeast strain expressing SCD1 as sole desaturase; format: cell-based
T1 construct: host or cells: S. cerevisiae ole1Δ strain (W303 pdr1Δ pdr3Δ background), plasmid pRS316 with TDH3 promoter and CYC1 terminator
T1 sequence (O00767 1-359): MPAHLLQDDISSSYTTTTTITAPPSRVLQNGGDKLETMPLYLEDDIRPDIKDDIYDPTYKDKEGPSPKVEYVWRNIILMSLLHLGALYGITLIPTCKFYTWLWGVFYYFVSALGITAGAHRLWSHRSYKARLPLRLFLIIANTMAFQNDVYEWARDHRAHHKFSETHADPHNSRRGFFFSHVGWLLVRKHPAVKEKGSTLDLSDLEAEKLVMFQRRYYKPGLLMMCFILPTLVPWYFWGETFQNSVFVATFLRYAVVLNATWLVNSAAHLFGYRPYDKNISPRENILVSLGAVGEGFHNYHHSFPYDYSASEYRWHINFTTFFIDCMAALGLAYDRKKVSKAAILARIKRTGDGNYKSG
How it was run: (§1)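 Plasmid-complemented ole1Δ yeast, drug-pump deleted (pdr1Δ pdr3Δ), depend solely on the introduced Ole1, SCD1 or SCD5 desaturase. Compounds are added from DMSO to cells in uracil-free galactose medium, 2× density 0.02, and OD600 is read after 24 h or 40 h respectively.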

SCD5 = target: T2, SCD5 (Homo sapiens, UniProt Q86SK9); assay: Growth inhibition of humanized yeast strain expressing SCD5 as sole desaturase; format: cell-based
T2 construct: host or cells: S. cerevisiae ole1Δ strain (W303 pdr1Δ pdr3Δ background), plasmid pRS316 with TDH3 promoter and CYC1 terminator
T2 sequence (Q86SK9 1-330): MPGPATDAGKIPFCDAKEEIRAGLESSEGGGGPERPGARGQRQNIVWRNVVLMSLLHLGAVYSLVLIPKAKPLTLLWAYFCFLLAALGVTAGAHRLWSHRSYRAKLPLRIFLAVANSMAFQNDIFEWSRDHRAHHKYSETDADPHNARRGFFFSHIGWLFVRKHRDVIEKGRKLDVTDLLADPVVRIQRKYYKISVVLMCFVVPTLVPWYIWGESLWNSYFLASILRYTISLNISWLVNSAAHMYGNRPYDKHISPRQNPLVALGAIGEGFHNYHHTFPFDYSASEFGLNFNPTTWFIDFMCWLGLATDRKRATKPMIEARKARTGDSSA
How it was run: as §1

[1] = growth inhibition of humanized yeast strain expressing human SCD1
[2] = growth inhibition of humanized yeast strain expressing human SCD5
[3] = humanized yeast strain expressing SCD1
[4] = humanized yeast strain expressing SCD5

Row | SMILES | IC50 (SCD1; humanized yeast strain, 40 h) [µM] | IC50 (SCD5; humanized yeast strain, 40 h) [µM] | also measured
1 | COC(=O)N1CCC(c2noc(-c3cccc(N4CCOCC4)c3)n2)CC1 [Compound 983] | > 45 | 1.51 | 
2 | O=C(N1CCC(c2noc(-c3ccc4cnn([C@@H]5CCOC5)c4c3)n2)CC1)C1(F)CC1 [Compound 1096] | > 45 | 0.00101 | 
3 | O=C(C1CC2(CC2)C1)N1CCC(c2noc(-c3ccc4oc(=O)n(C5COC5)c4c3)n2)CC1 [Compound 1021] | > 45 | 0.223 | 
4 | COC(=O)N1CCC(c2noc(-c3ccnc(C4CCCO4)c3)n2)CC1 (stereo not drawn) [Compound 973] | > 45 | > 45 | 
5 | CC(=O)N1CC(n2ncc3ccc(-c4noc(C5CCN(C(=O)OC(C)(C)C)CC5)n4)cc32)C1 [Compound 710] |  |  | IC50 (SCD1; [1]): > 45 µM; IC50 (SCD5; [2]): 0.05 µM
6 | O=C(C1CCC1)N1CCC(c2noc(-c3ccc4oc(=O)n(C5COC5)c4c3)n2)CC1 [Compound 1127] | > 45 | 1.47 | 
7 | CC(C)(C)OC(=O)N1CCCC(c2noc(-c3ccc4cnn(C5COC5)c4c3)n2)CC1 (stereo not drawn) [Compound 850] | > 45 | 0.01 | 
8 | CC(C)(C)OC(=O)N1CCC(c2noc(-c3cc4c(cnn4C4COC4)cc3F)n2)CC1 [Compound 931] | > 45 | > 45 | 
9 | CC(C)n1ncc2ccc(-c3noc(C4(F)CCN(C(=O)CC5(C)CC5)CC4)n3)cc21 [Compound 623] |  |  | IC50 (SCD1; [1]): > 45 µM; IC50 (SCD5; [2]): 0.854 µM
10 | Cn1ccc(-c2cc(-c3nc(C4CCN(C(=O)OC5(C)CC5)CC4)no3)ccn2)n1 [Compound 1185] | > 45 | > 45 | 
11 | Cc1ncc2n1CCN(c1noc(-c3ccc4cnn(C5COC5)c4c3)n1)C2 [Compound 949] | > 45 | > 45 | 
12 | CC(C)(C)OC(=O)N1CCC(c2nc(-c3cccc(OC4COC4)c3)no2)CC1 [Compound 672] |  |  | IC50 (SCD1; [1]): > 45 µM; IC50 (SCD5; [2]): 0.441 µM
13 | CC(C)n1ncc2ccc(-c3noc(C4CCN(C(C)C(F)(F)F)CC4)n3)cc21 (stereo not drawn) [Compound 1051] | > 45 | 7.5 | 
14 | COC(=O)N1CCC(c2nc(-c3ccc4cnc(C5COC5)n4c3)no2)CC1 [Compound 900] | > 45 | 13.1 | 
15 | COC(=O)N1CCC(c2noc(-c3ccc4cnn([C@H]5C[C@@H](O)C5)c4c3)n2)CC1 [Compound 945] | > 45 | 5.29 | 
16 | CC(C)n1ncc2ccc(-c3noc(C4CCNCC4(F)F)n3)cc21 (stereo not drawn) [Compound 508] |  |  | IC50 (SCD1; [3]): > 45 µM; IC50 (SCD5; [4]): > 45 µM
17 | CC(C)(C)OC(=O)N1CCC(c2nc(-c3ccc4cnn(CC5CCNC5=O)c4c3)no2)CC1 (stereo not drawn) [Compound 645] |  |  | IC50 (SCD1; [1]): 17.9 µM; IC50 (SCD5; [2]): 4.47 µM
18 | O=C(OC1CC1)N1CCC(c2noc(-c3cc(F)c4cnn(C5COC5)c4c3)n2)CC1 [Compound 1071] | > 45 | 0.00303 | 
19 | CC(C)n1ncc2ccc(-c3noc(C4CCN(C(=O)CN(C)C)CC4)n3)cc21 [Compound 686] |  |  | IC50 (SCD1; [1]): > 45 µM; IC50 (SCD5; [2]): > 45 µM
20 | CC(C)(C)OC(=O)N1CCC(c2nnc(-c3ccc4cnn(C5CCOC5)c4c3)o2)CC1 (stereo not drawn) [Compound 971] | > 45 | 0.089 | 
21 | O=C(c1sccc1Cl)N1CCC(c2nc(-c3ccc4cnn(C5COC5)c4c3)no2)CC1 [Compound 718] |  |  | IC50 (SCD1; [1]): > 45 µM; IC50 (SCD5; [2]): 0.635 µM
22 | Cn1ccc(-c2cc(-c3nc(C4CCN(C(=O)OC(C)(C)C)CC4)no3)ccn2)n1 [Compound 1183] | > 45 | > 45 | 
23 | O=C(N1CCN(c2noc(-c3ccc4cnn(C5COC5)c4c3)n2)CC1)C1(F)CC1 [Compound 970] | 8.5 | 0.00196 | 
24 | CC1(OC(=O)N2CCN(c3noc(-c4ccc5cnn(C6COC6)c5c4)n3)CC2)CC1 [Compound 735] |  |  | IC50 (SCD1; [1]): 3.99 µM; IC50 (SCD5; [2]): 0.01 µM

Row | SMILES | IC50 (SCD1; humanized yeast strain, 40 h) [µM] | IC50 (SCD5; humanized yeast strain, 40 h) [µM] | also measured
25 | O=C(C1CC1)N1CCC(c2noc(-c3ccc4oc(=O)n(C5COC5)c4c3)n2)CC1 [Compound 1135] | > 45 | 0.188 | 
26 | CC(C)(C)OC(=O)N1CCC(c2noc(-c3cc(Br)c4cnn(C5COC5)c4c3)n2)CC1 [Compound 1041] | > 45 | 0.01 | 
27 | CC(C)C(=O)N1CCC(c2noc(N3CCc4c(cnn4C4COC4)C3)n2)CC1 [Compound 1194] | > 45 | > 45 | 
28 | CC(C)(C)OC(=O)N1CCC(c2nc(-c3ccnc(Cl)c3)no2)CC1 [Compound 747] | > 45 | 26.8 | 
29 | CCC(=O)N1CCC(c2noc(-c3ccccc3N3CCOCC3)n2)CC1 [Compound 1168] | > 45 | > 45 | 
30 | CC(C)n1ncc2ccc(-c3noc(C4CCN(C(=O)C5CC(=O)N(C)C5(C)C)CC4)n3)cc21 (stereo not drawn) [Compound 616] |  |  | IC50 (SCD1; [1]): > 45 µM; IC50 (SCD5; [2]): > 45 µM
31 | O=C(c1ncccc1Cl)N1CCC(c2noc(-c3ccc4cnn(C5COC5)c4c3)n2)CC1 [Compound 695] |  |  | IC50 (SCD1; [1]): > 45 µM; IC50 (SCD5; [2]): 2.39 µM
32 | O=C(C1CC1)N1CCN(c2noc(-c3ccc4cnn(C5COC5)c4c3)n2)CC1 [Compound 844] | > 45 | 0.015 | 
33 | CC(C)(C)OC(=O)N1CCC(c2nc(-c3ccc4cnn(C5CCC5)c4c3)no2)CC1 [Compound 730] |  |  | IC50 (SCD1; [1]): > 45 µM; IC50 (SCD5; [2]): 0.718 µM
34 | COC(=O)N1CC[C@@H](c2noc(-c3ccc4cnn(C5COC5)c4c3)n2)C[C@@H]1C [Compound 1054] | > 45 | 0.01 | 
35 | CC(C)n1ncc2ccc(-c3noc(C4CCN(C(=O)N5CCCC5(C)CO)CC4)n3)cc21 (stereo not drawn) [Compound 687] |  |  | IC50 (SCD1; [1]): > 45 µM; IC50 (SCD5; [2]): > 45 µM
36 | Cc1nn(C)c2cc(-c3noc(C4CCN(C(=O)CNC(=O)c5ccc(F)cc5)CC4(F)F)n3)ccc12 (stereo not drawn) [Compound 557] |  |  | IC50 (SCD1; [3]): > 45 µM; IC50 (SCD5; [4]): 6.03 µM
37 | CN(c1cc(-c2nc(C3CCN(C(=O)C4CC4)CC3)no2)ccn1)C1COC1 [Compound 1125] | > 45 | 0.523 | 
38 | CC(C)C(=O)N1CCC(c2noc(-c3ccc4oc(=O)n(C5COC5)c4c3)n2)CC1 [Compound 1126] | > 45 | 2.74 | 
39 | CC(C)n1ncc2ccc(-c3noc(C4CCN(C(=O)CNC(=O)c5ccc(F)cc5)CC4(F)F)n3)cc21 (stereo not drawn) [Compound 681] |  |  | IC50 (SCD1; [1]): > 45 µM; IC50 (SCD5; [2]): > 45 µM
40 | CC(C)C(=O)N1CCC(c2noc(-c3ccnc(Cl)c3)n2)CC1 [Compound 1129] | > 45 | > 45 | 
41 | CCC(=O)N1CCN(c2noc(-c3ccnc(NC4COC4)c3)n2)CC1 [Compound 978] | > 45 | > 45 | 
42 | CN(c1cc(-c2nc(C3CCN(C(=O)OC4(C)CC4)CC3)no2)ccn1)C1COC1 [Compound 1158] | > 45 | 3.5 | 
43 | CC(C)(C)OC(=O)N1CCC(c2noc(-c3cncc(N4CCC(F)(F)C4)c3)n2)CC1 [Compound 1181] | > 45 | 0.47 | 
44 | CN1CC2CN(c3nc(-c4ccc5cnn(C6COC6)c5c4)no3)CCN2C1=O (stereo not drawn) [Compound 1142] | > 45 | > 45 | 
45 | CC(C)(C)OC(=O)N1CCC(c2noc(-c3cccc(C4CCO4)c3)n2)CC1 (stereo not drawn) [Compound 1152] | > 45 | 0.01 | 
46 | COC(=O)N1CCC(c2noc(-c3ccnc(N4CCOCC4)c3)n2)CC1 [Compound 1106] | > 45 | 2.96 | 
47 | O=C(c1ccccc1F)N1CCN(c2noc(-c3ccc4cnn(C5COC5)c4c3)n2)CC1 [Compound 725] |  |  | IC50 (SCD1; [1]): 5.99 µM; IC50 (SCD5; [2]): 0.011 µM
48 | Cc1nn(C)c2cc(-c3noc(C4CCN(CC5COC(=O)C5)CC4)n3)ccc12 (stereo not drawn) [Compound 567] |  |  | IC50 (SCD1; [3]): > 45 µM; IC50 (SCD5; [4]): > 45 µM
